Experimental data reported in patent US20160130293A1, “NOVEL COMPOUND DERIVED FROM PLANT OF GENUS QUAMOCLIT AND COMPOSITION CONTAINING SAME AS ACTIVE INGREDIENT FOR PREVENTING OR TREATING DIABETES” (KOREA RESEARCH INSTITUTE BIOSCIENCE, priority 2013, published 2016).

Legend:
[1] = test system: mice fed with high-fat diet (Male C57BL/6J); assay: Fasting blood glucose test in high-fat diet mice after 2 weeks of treatment; type: in vivo, mouse; conditions: 1 mg/kg oral daily for 2 weeks, fasted 16 hours, FIG. 6
Protocol: 5-week-old mouse (Male C57BL/6J, 19 g, Koatech, Pyeongtaek, Korea) was purchased and acclimated under constant temperature (25° C.) and humidity (50%) for 1 week and used for the experiment. Mice were classified into a group fed with normal diet and a group fed with high-fat diet and the mice were fed for 2 weeks, each group consisting of five mice.
At 2 weeks after feeding with high-fat diet, the experimental mice were classified into a normal mouse control group, a diabetic mouse control group, a diabetic mouse group treated with drug (glimepiride), a diabetic mouse group treated with the Quamoclit angulata-derived novel compound (KRIBB-BH-P, 1 mg/kg), and a diabetic mouse group treated with the Quamoclit angulata-derived novel compound (KRIBB-BH-SFP, 1 mg/kg), and the treated mice were orally administered with the drug and compounds daily for 2 weeks. Then, the mice were fasted for 16 hours, and the level of blood glucose was measured.

Min6 cell line = assay: Stimulation of insulin secretion in mouse pancreatic beta-cell line (Insulin ELISA); type: cell-based; conditions: 25 mM glucose, 0.5 ng/ml, 2 hours, vs 25 mM glucose negative control, FIG. 3
Protocol: The effect of the novel compound KRIBB-BH-SFP isolated from Quamoclit angulata on the stimulation of insulin secretion was determined in a mouse pancreatic beta-cell line, Min6 cell line.
Min6 cells (ATCC, USA) were cultured in HDMEM supplemented with 15% fetal bovine serum. To induce the expression of insulin in the Min6 cell line, the cells were plated on a 96 well plate at a density of 1×10^4 cell/plate and cultured in […] DMEM (high glucose) supplemented with 15% FBS for 72 hours. Then, the cells were washed with PBS buffer solution and cultured in HBSS buffer solution for 2 hours, and then, the buffer solution was replaced with HBSS buffer solution supplemented with 25 mM glucose. Then, the novel compound […] was added to a final concentration of 0.5 ng/ml, and the cells were cultured for 2 hours to determine the stimulation of insulin expression. Meanwhile, for use as a control, cells were treated with 5.5 mM glucose such that the insulin was not expressed. For use as a negative control, cells were treated with 25 mM glucose, and the level of insulin expression in these cells was compared to determine the effect of the novel compound (KRIBB-BH-SFP) derived from Quamoclit angulata on the stimulation of insulin expression. […]

[2] = test system: diabetic mice (Male C57BL/Ks DB/DB mouse); assay: Glycated hemoglobin (HbA1c) in diabetic mice after 4 weeks, ELISA kit; type: in vivo; conditions: 1 mg/kg oral daily for 4 weeks
Protocol: (§1) 6-week-old mice (Male C57BL/6J mouse, 20 g, Central Lab. Animal Inc., Seoul) and 6-week-old diabetic mice (Male C57BL/Ks DB/DB mouse, 20 g, Central Lab. Animal Inc., Seoul) were purchased and acclimated under constant temperature (25° C.) and humidity (50%) for 1 week and used for the experiment.
(§2) Mice were classified into a normal mouse control group, a diabetic mouse control group, a diabetic mouse group treated with drug (glimepiride), a diabetic mouse group treated with the Quamoclit angulata-derived novel compound (KRIBB-BH-P, 1 mg/kg), and a diabetic mouse group treated with the Quamoclit angulata-derived novel compound (KRIBB-BH-SFP, 1 mg/kg), each group consisting of five mice. The treated mice were orally administered with the drug and compounds daily for 4 weeks. The change in blood glucose in mice of each group was measured every week, and after 4 weeks, blood was collected from each mouse to measure the concentration of glycated hemoglobin.
In order to reduce the complications developed in diabetic patients under treatment, it is important to maintain the level of blood glucose at an appropriate level. Since the levels of blood glucose measured at a certain time may be changed by various factors, the test of glycated hemoglobin (HbAlc) is most widely used for the purpose of determining the long-term change in blood glucose control. […]
In order to determine the effect of the Quamoclit angulata-derived novel compound on the glycated hemoglobin, blood was collected from each mouse in the normal mouse control group, the diabetic mouse control group, the diabetic mouse group treated with the Quamoclit angulata-derived novel compound (KRIBB-BH-P, 1 mg/kg), and the diabetic mouse group treated with the Quamoclit angulata-derived novel compound (KRIBB-BH-SFP, 1 mg/kg), in which the treated mice were orally administered with the compounds daily for 4 weeks, and the levels of glycated hemoglobin were measured using an ELISA kit (Cusabio biotech, Japan).

[3] = test system: diabetic mice (Male C57BL/Ks DB/DB mouse); assay: Blood glucose in diabetic mice treated orally for 4 weeks; type: in vivo; conditions: 1 mg/kg oral daily for 4 weeks, vs diabetic mouse control group, FIG. 4
Protocol: Normal mice and diabetic mice were treated with the Quamoclit-derived novel compound to determine the changes in diabetes indicators such as blood glucose and glycated hemoglobin.
as §1, §2

Row | Compound | level of blood glucose (fasting) [1] | level of insulin expression (insulin secreted from Min6 cells) (Min6 cell line) | HbA1c [2] | level of glycated hemoglobin ([2]; in words) | level of blood glucose [3]
1 | CCCCCC(CCCC(O)CC(=O)O)OC1OC(C)C(O)C(O)C1O (stereo not drawn) [KRIBB-BH-SFP] | significantly reduced | increased | 6.51 ± 0.46% | significantly reduced | significantly reduced
2 | CCCCCC(CCCC(O)CC(=O)O)OC1OC(COC2OC(C)C(OC3CC(O)C(O)C(C)O3)CC2O)C(O)C(O)C1OC1CC(O)C(OC2CC(O)C(OC3CC(O)C(OC)C(C)O3)C(C)O2)C(C)O1 (stereo not drawn) [KRIBB-BH-P] | significantly reduced | – | 6.63 ± 0.70% | – | significantly reduced
3 | CCCCCC(O)CCCC(O)CC(=O)O (stereo not drawn) [KRIBB-BH-SC] | – | increased | – | – | –
